For assay [1], the system named is DDd-L7Ae. In words: DDd-L7Ae OFF switch on replicon in myotubes differentiated from C2C12. Format: cell-based. In general terms: Replicon systems follow genome replication, usually without infectious particles.
Assay [2] has as its system DDd-L7Ae.
In assay [3] the test system is DDe (human estrogen receptor ligand binding domain) fused to Fluc2. The conditions noted are these: C2C12.

The values below come from patent publication US11351271B2, “RNA-based logic circuits with RNA binding proteins, aptamers and small molecules” (priority 2014, dated 2022).

For the compound `COc1cc(Cc2cnc(N)nc2N)cc(OC)c1OC` [TMP, trimethoprim], in the assay on DDd-L7Ae [1] (mouse myotubes, optimized circuit with PKR inhibitors), the “Decrease in expression after addition of TMP” value is recorded as 15 fold. In addition, the “Repression of reporter upon addition of TMP” value with DDd-L7Ae [2] is 22.5 fold. Consider `CC/C(=C(\c1ccc(O)cc1)c1ccc(OCCN(C)C)cc1)c1ccccc1` [4-OHT, 4-hydroxytamoxifin], for which the “Increase of DDe-Fluc2 expression compared to no small molecule” value in assay [3] is 6.4 fold. Turning to `O=C1Nc2ccc3ncsc3c2/C1=C/c1cnc[nH]1` [C16], in the assay with DDd-L7Ae [1] (myotubes), the “Effect on expression and fold change of the DDd-L7Ae circuit” value was “increase expression and overall fold change”.
